In patent US12491170B2, “Stable treprostinil prodrugs” (United Therapeutics Corporation, priority 2020, dated 2025):
Read-outs that look alike come from different tables or passages of the source.

Assays:
[1] = rat
[2] = Stability in liver microsomes, human; conditions: for AUC: human
Description: (§1) Mixed-gender human liver microsomes, male Sprague-Dawley rat liver microsomes, and male Beagle dog liver microsomes were purchased from XenoTech. The reaction mixture, minus NADPH, was prepared as described below. […] An aliquot of the reaction mixture (without cofactor) was equilibrated in a shaking water bath at 37° C. for 5 minutes. The reaction was initiated by the addition of cofactor, and the mixture was incubated in a shaking water bath at 37° C. Aliquots (200 μL) were withdrawn at 0, 10, 20, 30, and 60 minutes. Test article samples were immediately combined with 400 μL of ice-cold acetonitrile (ACN) to terminate the reaction. […] The samples were then mixed and centrifuged to precipitate proteins. Aliquots of the supernatant were removed, diluted 1:1 into distilled water containing internal standard, and analyzed by LC-MS/MS against calibration standards prepared in a matched matrix. All samples were analyzed for the dosed prodrugs as well as the drug, treprostinil. The test article concentration was compared to the concentration at time 0 to determine the percent of test article remaining at each time point. Half-lives and clearance were calculated using GraphPad software, fitting to a single-phase exponential decay equation.
(§2) • Liver Microsomes 0.5 mg/mL • NADPH (cofactor) 1 mM • Potassium Phosphate, pH 7.4 100 mM • Magnesium Chloride 5 mM • Test Article 1 μM

[3] = Stability in cryopreserved hepatocytes, rat; conditions: for AUC: rat
Description: (§3) Mixed-gender human cryopreserved hepatocytes, male Sprague-Dawley rat cryopreserved hepatocytes, and male Beagle dog cryopreserved hepatocytes were purchased from XenoTech. The hepatocytes were thawed and prepared according to the vendor's instructions, pooled into Krebs Henseleit buffer (KHB, pH 7.4), and kept on ice prior to the experiments. […] The final DMSO content in the incubation mixture was ≤0.1%. […] Aliquots of the test article were withdrawn (n=1) at 0, 15, 30, 60, and 120 minutes. […] Aliquots of 7-HC were withdrawn (n=1) at 0 and 15 minutes. The reaction was immediately terminated by adding two volumes of ice-cold acetonitrile (ACN) to the test article samples and three volumes of ACN containing internal standard to the positive control samples. The samples were then mixed and centrifuged to precipitate proteins. An aliquot of the supernatant was then diluted with water and analyzed by LC-MS/MS against calibration standards prepared in a matched matrix. […] All test article samples were analyzed for the dosed prodrugs as well as the drug, treprostinil. The test article concentration was compared to the concentration at time 0 to determine the percent of test article remaining at each time point. Half-lives and clearance values were calculated using GraphPad software, fitting to a single-phase exponential decay equation.

[4] = Stability in cryopreserved hepatocytes, human; conditions: for AUC: human
Description: as §3

[5] = Stability in cryopreserved hepatocytes, dog; conditions: for AUC: dog
Description: as §3

[6] = dog
[7] = Stability in liver microsomes, dog
Description: as §1, §2

[8] = Stability in liver microsomes, rat
Description: as §1, §2

Row | AUC [1] [µmol·min/L] | Trep Concentration 0 min [2] [µM] | Trep Concentration 10 min [2] [µM] | Trep Concentration 20 min [2] [µM] | Trep Concentration 30 min [2] [µM] | Trep Concentration 60 min [2] [µM] | AUC [2] [µmol·min/L] | AUC [3] [µmol·min/L] | AUC [4] [µmol·min/L] | AUC [5] [µmol·min/L] | AUC [6] [µmol·min/L] | Trep Concentration 0 min [7] [µM] | Trep Concentration 10 min [7] [µM] | Trep Concentration 20 min [7] [µM] | Trep Concentration 30 min [7] [µM] | Trep Concentration 60 min [7] [µM] | Trep Concentration 0 min [8] [µM] | Trep Concentration 10 min [8] [µM] | Trep Concentration 20 min [8] [µM] | Trep Concentration 30 min [8] [µM] | other results | SMILES
1 | 0.00 | 0 | 0 | 0 | 0 | 0 | 0.00 | 0.00 | 0.00 | 0.10 | 0.11 | 0 | 0 | 0.00553 | 0.003 | 0 | 0 | 0 | 0 | 0 | Trep Concentration (μM) 0 min [3]: 0 µM; Trep Concentration (μM) 15 min [3]: 0 µM; Trep Concentration (μM) 30 min [3]: 0 µM; Trep Concentration (μM) 60 min [3]: 0 µM; Trep Concentration (μM) 120 min [3]: 0 µM; Trep Concentration (μM) 0 min [4]: 0 µM; Trep Concentration (μM) 15 min [4]: 0 µM; Trep Concentration (μM) 30 min [4]: 0 µM; Trep Concentration (μM) 60 min [4]: 0 µM; Trep Concentration (μM) 120 min [4]: 0 µM; Trep Concentration (μM) 0 min [5]: 0 µM; Trep Concentration (μM) 15 min [5]: 0 µM; Trep Concentration (μM) 30 min [5]: 0 µM; Trep Concentration (μM) 60 min [5]: 0 µM; Trep Concentration (μM) 120 min [5]: 0.00339 µM; Trep Concentration 60 min [8]: 0 µM | CCCCCC1CCC2C(CC3Cc4c(cccc4OCC(=O)O)CC32)OP(=O)(Oc2ccccc2)O1 (mixture of isomers) [XXVIII]
2 | 49.70 |  |  |  |  |  | 16.85 | 70.03 | 39.76 | 47.99 | 55.95 |  |  |  |  |  |  |  |  |  |  | CCCCCC(CCC1C(O)CC2Cc3c(cccc3OCC(=O)O)CC21)OC(=O)OC (stereo not drawn) [IV]
3 | 0.00 | 0 | 0 | 0 | 0 | 0 | 0.00 | 0.00 | 0.00 | 0.74 | 0.00 | 0 | 0 | 0 | 0 | 0 | 0 | 0 | 0 | 0 | Trep Concentration (μM) 0 min [3]: 0 µM; Trep Concentration (μM) 15 min [3]: 0 µM; Trep Concentration (μM) 30 min [3]: 0 µM; Trep Concentration (μM) 60 min [3]: 0 µM; Trep Concentration (μM) 120 min [3]: 0 µM; Trep Concentration (μM) 0 min [4]: 0 µM; Trep Concentration (μM) 15 min [4]: 0 µM; Trep Concentration (μM) 30 min [4]: 0 µM; Trep Concentration (μM) 60 min [4]: 0 µM; Trep Concentration (μM) 120 min [4]: 0 µM; Trep Concentration (μM) 0 min [5]: 0 µM; Trep Concentration (μM) 15 min [5]: 0 µM; Trep Concentration (μM) 30 min [5]: 0.00416 µM; Trep Concentration (μM) 60 min [5]: 0.00836 µM; Trep Concentration (μM) 120 min [5]: 0.00907 µM; Trep Concentration 60 min [8]: 0 µM | CCCCCC(CCC1C(O)CC2Cc3c(cccc3OCC(=O)O)CC21)OC(=O)NCCO (stereo not drawn) [LIX]
4 | 0.00 | 0 | 0 | 0 | 0 | 0 | 0.00 | 0.00 | 0.00 | 0.32 | 0.00 | 0 | 0 | 0 | 0 | 0 | 0 | 0 | 0 | 0 | Trep Concentration (μM) 0 min [3]: 0 µM; Trep Concentration (μM) 15 min [3]: 0 µM; Trep Concentration (μM) 30 min [3]: 0 µM; Trep Concentration (μM) 60 min [3]: 0 µM; Trep Concentration (μM) 120 min [3]: 0 µM; Trep Concentration (μM) 0 min [4]: 0 µM; Trep Concentration (μM) 15 min [4]: 0 µM; Trep Concentration (μM) 30 min [4]: 0 µM; Trep Concentration (μM) 60 min [4]: 0 µM; Trep Concentration (μM) 120 min [4]: 0 µM; Trep Concentration (μM) 0 min [5]: 0 µM; Trep Concentration (μM) 15 min [5]: 0 µM; Trep Concentration (μM) 30 min [5]: 0.00519 µM; Trep Concentration (μM) 60 min [5]: 0.00214 µM; Trep Concentration (μM) 120 min [5]: 0.00344 µM; Trep Concentration 60 min [8]: 0 µM | CCCCCC(CCC1C(O)CC2Cc3c(cccc3OCC(=O)O)CC21)OC(=O)N1CCC(O)CC1 (stereo not drawn) [LVIII]
5 | 4.12 | 0.12 | 0.184 | 0.24 | 0.268 | 0.275 | 14.33 |  |  |  | 14.33 | 0.104 | 0.16 | 0.222 | 0.243 | 0.342 | 0.0393 | 0.0539 | 0.0653 | 0.0747 | Trep Concentration 60 min [8]: 0.0824 µM | CCCCCC(CCC1C(O)CC2Cc3c(cccc3OCC(=O)O)CC21)OC(=O)c1ccc(OC(F)(F)F)cc1 (stereo not drawn) [LXIII]
6 | 0.39 |  |  |  |  |  | 0.00 | 10.79 | 0.00 | 0.00 | 0.00 |  |  |  |  |  |  |  |  |  |  | CCCCCC(O)CCC1C(O)CC2Cc3c(cccc3OCC(=O)NCC(=O)O)CC21 (stereo not drawn) [VII]
